Patent publication US10363261B2, “Enolase inhibitors and methods of treatment therewith” (Board of Regents, The University of Texas System, priority 2015, dated 2019)

Tests used:
[1] = system: D423 overexpressing ENO2; test: Sensitivity of D423 cells with re-expression of ENO2; type: cell-based, human
Procedure: Total cell number was quantified by Hoechst 33342 (Cat# H3570; Invitrogen). Apoptotic cells were counted by staining with propidium iodide. Apoptotic cells become permeable to propidium iodide while live cells are not stained. On the day of apoptosis survey, old media was removed and each well was filled to 100 μl with fresh media. Hoechst and propidium iodide were mixed in 1:100 PBS and 10 μl of the mixture was added in each well gently without touching the cells for a final dilution of 1:1000 from stock. Plates were then incubated at 37° C. for 2 hours. Image capture and quantification was done by High Content Screening System—Operetta (Perkin Elmer).
Cell proliferation of glioma cell lines was assayed either through crystal violet staining or by live-cell confluence measurements with the IncuCyte (Essen BioScience). […] Dye extraction was performed using 10% acetic acid solution, and absorbance was read at 595 nm. Apoptotic cells were counted by staining with YO-PRO®-1 Iodide (491/509, Life Technologies, Y3603). […] Total cell number was quantified by Hoechst 33342 (Cat# H3570 Invitrogen). […] Image capture and quantification was done by High Content Screening System—Operetta (Perkin Elmer). ATP content was measured with the luciferase/luciferin CellTiter-Glo® assay. […]

[2] = Hematocrit / hemolytic anemia after IV administration
Text: Erythrocytes are sensitive to disruptions in the glycolytic cycle as glycolysis is the cell's only source of energy in the form of ATP.

O=C1C(P(=O)(O)O)CC(O)N1O (racemic) [SF2312, 3-dihydroxyphosphoryl-1,5-dihydroxy-2-pyrrolidone]
residual sensitivity to SF2312 relative to that of PhAH after re-expression of ENO2 [1]: at least 4 times
hematocrit after treatment (drop from 45%) ([2]; 100 mg/kg IV for longer than a week): 29%
dose at which mild hemolytic anemia can be observed ([2]; as low as): 50 mg/kg
